For data set [1] the following is noted: female, Yorkshire-Cross, swine, in vivo, po, 0.09 mg/kg. As for the experimental part:
FIG. 76 is a graph showing the mean concentration of tacrolimus in the cecum tissue and the proximal colon tissue 12 hours after intracecal or oral administration of tacrolimus to swine as described in Example 10.
FIG. 79 is a graph showing the mean concentration of tacrolimus in the cecum tissue, the proximal colon tissue, the spiral colon tissue, the transverse colon tissue, and the distal colon tissue after intracecal (IC) or oral administration (PO) of tacrolimus in swine as described in Example 13. ****P<0.0001, ***P<0.001.
FIG. 90 is a graph showing the mean concentration of tacrolimus in the cecum, the proximal colon, the spiral colon, the transverse colon, and the distal colon of swine after intracecal (IC) or oral administration (PO) of tacrolimus as described in Example 10.

Data set [2] can be described thus: Pharmacokinetics of oral vs intra-cecal tacrolimus: blood, rectal contents, GI tissue and luminal content (Example 13). Also on record: species or system Yorkshire-Cross farm swine. The conditions noted are these: in vivo. An excerpt: (§1) No further randomization procedure was employed.
Data set [3] can be described thus: Tacrolimus blood concentration and AUC0-12 hours after IC or PO administration. To be noted: female, Yorkshire-Cross, swine, in vivo. As for the experimental part:
FIG. 77 is a graph showing the mean concentration of tacrolimus in the blood 1 hour, 2 hours, 3 hours, 4 hours, 6 hours and 12 hours after intracecal (IC) or oral administration (PO) of tacrolimus to swine as described in Example 13.
FIG. 78 is a graph showing the AUC0-12 hours of tacrolimus in the blood after intracecal (IC) or oral administration (PO) of tacrolimus in swine as described in Example 13.
FIG. 87 is a graph showing the mean concentration of tacrolimus in the blood of swine 1 hour, 2 hours, 3 hours, 4 hours, 6 hours, and 12 hours after intracecal (IC) or oral administration (PO) of tacrolimus as described in Example 10.
FIG. 88 is a graph showing the AUC0-12 hours of tacrolimus in the blood of swine after intracecal (IC) or oral administration (PO) of tacrolimus as described in Example 10.

Data set [4] is described as follows: Tissue, plasma, rectal sample and GI content pharmacokinetics of tacrolimus, oral vs intra-cecal ingestible device (Example 10). To be noted: in vivo. The arrangement: species or system Yorkshire-Cross farm swine. How it is done:
The primary objective of this study was to compare the tissue, plasma, rectal sample, and GI content pharmacokinetics of tacrolimus through oral versus intra-cecal ingestible device delivery in normal Yorkshire-Cross farm swine.
as §1
Animals in Group 1 received an ingestible device containing 0.8 mL of vehicle solution (80% alcohol, 20% HCO-60). Animals in Group 2 received orally […] liquid formulation of tacrolimus at 4 mg/0.8 mL per animal (Prograf: 5 mg/mL). Animals in Group 3 received intra-cecally an ingestible device containing tacrolimus at 1 mg in 0.8 mL per ingestible device. Animals in Group 4 received intra-cecally an ingestible device containing tacrolimus at 2 mg in 0.8 mL per ingestible device. Animals in Group 5 received intra-cecally an ingestible device containing tacrolimus at 4 mg in 0.8 mL per ingestible device. To control for potential confounding effects of the surgery, all groups fast on Day −11 at least 24 hr before being subjected to anesthesia followed by surgical placements of a cecal port by a veterinary surgeon at Day −10. All animals were fasted for at least 12 hr prior to dosing on Day 1. Animals were dosed via either intra-cecal dosing (IC) or oral dosing (PO) at Day 1 (between 6-8 p.m.). All animals resumed feeding at approximately 4 hours after dose (11-12 p.m. after dosing).
Animals in Group 1 (Vehicle Control) were administered a single intra-cecal ingestible device containing 0.8 mL Vehicle solution (80% alcohol, 20% castor oil (HCO-60) on Day 1. On Day −10 the animals were anesthetized, and a veterinary surgeon surgically placed an intra-cecal port in each animal. On Day 1, each animal was placed into a sling then a single intra-cecal ingestible device containing 0.8 mL vehicle solution (80% alcohol, 20% castor oil (HCO-60)) is introduced by the veterinary surgeon into the cecum via the cecal port in each animal. Following ingestible device placement, the animals were removed from the slings and placed back into their pens with water. All animals resumed feeding at approximately 4 hours after dose. […] A total of 60 samples were collected.
Approximately 200˜400 mg of rectal content were collected, if available, with a fecal swab (Copan Diagnostics Nylon Flocked Dry Swabs, 502CS01). The fecal swab was pre-weighed and weighed after collection in the collection tube (Sterile Tube and Cap No Media, PFPM913S), and the sample weight was recorded. The fecal swab was broken via the breakpoint, and was stored in the collection tube, and immediately frozen at −70° C. […] Immediately following euthanasia, tissue was collected.
For tissue necropsy, small intestine fluid and cecal fluid were collected separately from all the animals into two separate square plastic bottles, and stored at −20° C. The length and diameter of the cecum and the colon was measured from one animal in each group and recorded for reference. Tissues were collected for pharmacokinetic analyses and include mesenteric lymph nodes, a Peyer's Patch, and five gastrointestinal sections, including cecum, proximal colon, transverse colon, distal colon, and rectum. All samples were weighed, and the tissue sample weights were recorded. […] Around 3 grams of the total punched sample were collected into a pre-weighed 15-mL conical tube, and the tissue weight was recorded. […]

The test system of data set [5] is IL-6, GM-CSF, IL-15, IL-2, IL-12, IL-13, TNF-α, INF-γ.

Counter-ions that a name gives are not always drawn. Like-named read-outs stand apart in the source and are kept apart here.

`C=CC[C@@H]1/C=C(\C)C[C@H](C)C[C@H](OC)[C@H]2O[C@@](O)(C(=O)C(=O)N3CCCC[C@H]3C(=O)O[C@H](/C(C)=C/[C@@H]3CC[C@@H](O)[C@H](OC)C3)[C@H](C)[C@@H](O)CC1=O)[C@H](C)C[C@@H]2OC` [tacrolimus]: the “Tissue(mean) (ng/g)/AUG(0-12 hr) (ng · hr/mL) Ratio” value in data set [1] and in data set [1] (12 h) was 0 in each case. The concentration at 12 h was found to be 0.746 ± 0.038 ng/mL in data set [2] (female, Yorkshire-Cross, swine, 0.02 mg/kg, Trough (12 hr)); 1.96 ± 0.491 ng/mL in data set [2] (female, Yorkshire-Cross, swine, 0.04 mg/kg, Trough (12 hr)); 4.35 ± 0.561 ng/mL in data set [2] (female, Yorkshire-Cross, swine, 0.09 mg/kg, Trough (12 hr)); 0.568 ± 0.291 ng/mL in data set [2] (female, Yorkshire-Cross, swine, po, 0.09 mg/kg, Trough (12 hr)); 0.568 ng/mL in data set [2] (female, Yorkshire-Cross, swine, po, 0.09 mg/kg, Trough level (12 hr)); 0.746 ± 0.038 ng/mL in data set [3] (0.02 mg/kg). Further, the concentration at 12 h in data set [3] (0.04 mg/kg) worked out at 1.96 ± 0.491 ng/mL; in data set [3] (0.09 mg/kg), 4.35 ± 0.516 ng/mL; in data set [3] (po, 0.09 mg/kg), 0.568 ± 0.291 ng/mL. Also, the “Ratio Tissue(mean)/Trough(12 hr)” value in data set [2] (female, Yorkshire-Cross, swine, po, 0.09 mg/kg, 12 h) was determined as 0. For the same compound, in data set [2] (female, Yorkshire-Cross, swine, po, 0.09 mg/kg, Ratio Tissue(mean)/Trough(12 hr)), the Kp at 12 h came to 0. In addition, the “mean concentration of tacrolimus in the spiral colon lumen, the transverse colon lumen, and the distal colon lumen” value in data set [2] was “statistically higher”. Besides, in data set [2], the “mean concentration of tacrolimus in the spiral colon tissue and the transverse colon tissue” value is “statistically higher”. Further, the “mean concentration and AUC0-12 hours of tacrolimus in the blood” value in data set [2] (po, 0.09 mg/kg) is listed as “higher”. For the same compound, the “exposure AUC” value in data set [4] is < 2000-12 ng·h/mL. In addition, in data set [4], the “mean concentration of tacrolimus in the cecum tissue and the proximate colon tissue” value is recorded as “higher”. The “tissue (spiral and transverse colon) and luminal content (spiral, transverse, and distal colon) concentrations” value in data set [4] is on record as “Significantly higher”. Moreover, in data set [4] (po), the “level of tacrolimus in tissue” value was “No measurable level”. Also, the rectal content concentration entry in data set [4] (po) is on record as “no detectable level”.

Consider `C[C@@H]1CCN(C(=O)CC#N)C[C@@H]1N(C)c1ncnc2[nH]ccc12` [tofacitinib citrate], for which the “IL-6 expression in plasma” value in data set [5] (PO or IC administration, 1 h and 3 h post-treatment) is on record as “inhibition of IL-6 expression”. The “inhibition of IL-6 expression in colon tissue” value in data set [5] (all IC treated groups and high dose PO group (45 mg/kg) (FIG. 112B)) was “sustained through 24 h post-dose”. For the same compound, the “GM-CSF levels in plasma or colon tissue” value in data set [5] (between IC and PO treatment groups) is on record as “nor was there a significant difference”. Besides, in data set [5] (low dose PO group (15 mg/kg), by 12 h post-dose), the “IL-6 inhibition in colon tissue” value is given as “Recovery from IL-6 inhibition was observed”.

Broadly, the Kp is tissue or fluid exposure divided by exposure in the circulation.

Values taken from patent US20260001946A1, “TREATMENT OF A DISEASE OR CONDITION IN A TISSUE ORIGINATING FROM THE ENDODERM” (BT Bidco, Inc., priority 2018, published 2026).
